Measured values: patent publication US20080004344A1, “Novel Salts of Fumaric Acid Monoalkylesters and Their Pharmaceutical Use” (ADITECH PHARMA AB, priority 2004, published 2008)

Columns and labels:
IL-10 = test: Monocyte stimulation cultures of PBMC (LPS or unstimulated), IL-10 ELISA
TNF-alpha = test: Monocyte stimulation cultures of PBMC (LPS or unstimulated), TNF-alpha ELISA; type: cell-based, human
Description: (§1) PBMC were isolated from blood of two healthy volunteers (person) via Ficoll density gradient centrifugation. The purified cells were used in parallel cultures for monocyte stimulations using Lipopolysaccharide (LPS) and T cell specific stimulations using bead-coupled antibodies directed against the T cell activation antigens CD3 and CD28.
(§2) Cultures were incubated in a tissue culture incubator at 37° C., 5% CO2 for 20 h, culture supernatants were harvested at the end of the culture period and used for cytokine quantitation. The measured cytokines in cell culture supernatants from either monocyte stimulation cultures (IL-8, IL-10, TNF-α) or T cell stimulation cultures (IL-2, IL-4) were quantitated with ELISAs (Becton Dickinson) according to the manufacturers instructions. The resulting optical density (OD) was measured on a Packard Fusion Reader and OD values were translated to cytokine concentrations (in pg/ml) with the use of the Fusion Reader Data Analysis Software.

IL-4 = test: T cell specific stimulation of PBMC (CD3/CD28 beads), IL-4 ELISA; type: cell-based, human; conditions: for IL-4 Conc: CD3/CD28 beads
Description: as §1, §2

IL-8 = test: Monocyte stimulation cultures of PBMC (LPS or unstimulated), IL-8 ELISA
[1] = pH-value of the solution on dissolving in water; type: physicochemical; conditions: dissolved in water
Description: When strontium monomethyl fumarate is dissolved in water, the pH-value of the solution raises to alkaline values (pH˜9-10), owing to production of hydroxyl ions: Sr(C5H5O4)2+2H2O→Sr^2+(aq)+2C5H6O4(aq)+2OH^−(aq) (2)

IL-2 = test: T cell specific stimulation of PBMC (CD3/CD28 beads), IL-2 ELISA; type: cell-based, human; conditions: for IL-2 Conc: CD3/CD28 beads
Description: as §1, §2

[2] = LPS 1 ng/ml, 10 μM MMF, Donor 1
[3] = LPS 1 ng/ml, 10 μM MMF, Donor 2
[4] = LPS 1 ng/ml, 30 μM MMF, Donor 1
[5] = LPS 1 ng/ml, 30 μM MMF, Donor 2
[6] = LPS 1 ng/ml, 100 μM MMF, Donor 1
[7] = LPS 1 ng/ml, 100 μM MMF, Donor 2
[8] = LPS 1 ng/ml, 300 μM MMF, Donor 1
[9] = LPS 1 ng/ml, 300 μM MMF, Donor 2
[10] = as single stimulant (unstimulated monocytes)
[11] = no LPS printed for these rows, 1 μM MMF, Donor 1
[12] = no LPS printed for these rows, 1 μM MMF, Donor 2
[13] = no LPS printed for these rows, 3 μM MMF, Donor 1
[14] = no LPS printed for these rows, 3 μM MMF, Donor 2
[15] = no LPS printed for these rows, 10 μM MMF, Donor 1
[16] = no LPS printed for these rows, 10 μM MMF, Donor 2
[17] = no LPS printed for these rows, 30 μM MMF, Donor 1
[18] = no LPS printed for these rows, 30 μM MMF, Donor 2
[19] = no LPS printed for these rows, 100 μM MMF, Donor 1
[20] = no LPS printed for these rows, 100 μM MMF, Donor 2
[21] = no LPS printed for these rows, 300 μM MMF, Donor 1
[22] = no LPS printed for these rows, 300 μM MMF, Donor 2
[23] = no LPS printed for these rows, 1 mM MMF, Donor 1
[24] = no LPS printed for these rows, 1 mM MMF, Donor 2
[25] = no LPS printed for these rows, 3 mM MMF, Donor 1
[26] = no LPS printed for these rows, 3 mM MMF, Donor 2

## di-strontium-tetrakis-(mono methyl fumarate)-tetra hydrate [strontium MMF]
IL-10; LPS 1 ng/ml, 1 μM MMF, Donor 1
  IL-10 Conc: 11 pg/mL
IL-10; LPS 1 ng/ml, 1 μM MMF, Donor 2
  IL-10 Conc: 11 pg/mL
IL-10; LPS 1 ng/ml, 3 μM MMF, Donor 1
  IL-10 Conc: 13 pg/mL
IL-10; LPS 1 ng/ml, 3 μM MMF, Donor 2
  IL-10 Conc: 5 pg/mL
IL-10; [2]
  IL-10 Conc: 106 pg/mL
IL-10; [3]
  IL-10 Conc: 13 pg/mL
IL-10; [4]
  IL-10 Conc: 62 pg/mL
IL-10; [5]
  IL-10 Conc: 32 pg/mL
IL-10; [6]
  IL-10 Conc: 7 pg/mL
IL-10; [7]
  IL-10 Conc: 0 pg/mL
IL-10; [8]
  IL-10 Conc: 0 pg/mL
IL-10; [9]
  IL-10 Conc: 0 pg/mL
IL-10; LPS 1 ng/ml, 1 mM MMF, Donor 1
  IL-10 Conc: 2 pg/mL
IL-10; LPS 1 ng/ml, 1 mM MMF, Donor 2
  IL-10 Conc: 0 pg/mL
IL-10; LPS 1 ng/ml, 3 mM MMF, Donor 1
  IL-10 Conc: 1 pg/mL
IL-10; LPS 1 ng/ml, 3 mM MMF, Donor 2
  IL-10 Conc: 0 pg/mL
IL-10; LPS-stimulated monocytes
  effect on IL-10 secretion: co-induced
IL-10; [10]
  effect on IL-10 secretion: induced
IL-10; [11]
  IL-10 Conc: 775 pg/mL
IL-10; [12]
  IL-10 Conc: 1125 pg/mL
IL-10; [13]
  IL-10 Conc: 886 pg/mL
IL-10; [14]
  IL-10 Conc: 1385 pg/mL
IL-10; [15]
  IL-10 Conc: 1026 pg/mL
IL-10; [16]
  IL-10 Conc: 2035 pg/mL
IL-10; [17]
  IL-10 Conc: 351 pg/mL
IL-10; [18]
  IL-10 Conc: 800 pg/mL
IL-10; [19]
  IL-10 Conc: 7 pg/mL
IL-10; [20]
  IL-10 Conc: 40 pg/mL
IL-10; [21]
  IL-10 Conc: 0 pg/mL
IL-10; [22]
  IL-10 Conc: 0 pg/mL
IL-10; [23]
  IL-10 Conc: 0 pg/mL
IL-10; [24]
  IL-10 Conc: 0 pg/mL
IL-10; [25]
  IL-10 Conc: 0 pg/mL
IL-10; [26]
  IL-10 Conc: 0 pg/mL
TNF-alpha; LPS 1 ng/ml, 1 μM MMF, Donor 1
  TNF-alpha Conc: 464 pg/mL
TNF-alpha; LPS 1 ng/ml, 1 μM MMF, Donor 2
  TNF-alpha Conc: 459 pg/mL
TNF-alpha; LPS 1 ng/ml, 3 μM MMF, Donor 1
  TNF-alpha Conc: 631 pg/mL
TNF-alpha; LPS 1 ng/ml, 3 μM MMF, Donor 2
  TNF-alpha Conc: 650 pg/mL
TNF-alpha; [2]
  TNF-alpha Conc: 1624 pg/mL
TNF-alpha; [3]
  TNF-alpha Conc: 2559 pg/mL
TNF-alpha; [4]
  TNF-alpha Conc: 1787 pg/mL
TNF-alpha; [5]
  TNF-alpha Conc: 3289 pg/mL
TNF-alpha; [6]
  TNF-alpha Conc: 250 pg/mL
TNF-alpha; [7]
  TNF-alpha Conc: 711 pg/mL
TNF-alpha; [8]
  TNF-alpha Conc: 20 pg/mL
TNF-alpha; [9]
  TNF-alpha Conc: 96 pg/mL
TNF-alpha; LPS 1 ng/ml, 1 mM MMF, Donor 1
  TNF-alpha Conc: 0 pg/mL
TNF-alpha; LPS 1 ng/ml, 1 mM MMF, Donor 2
  TNF-alpha Conc: 11 pg/mL
TNF-alpha; LPS 1 ng/ml, 3 mM MMF, Donor 1
  TNF-alpha Conc: 0 pg/mL
TNF-alpha; LPS 1 ng/ml, 3 mM MMF, Donor 2
  TNF-alpha Conc: 0 pg/mL
TNF-alpha; LPS-stimulated monocytes
  effect on TNF-alpha secretion: co-stimulatory
TNF-alpha; [10]
  effect on TNF-alpha secretion: induced
TNF-alpha; [11]
  TNF-alpha Conc: 29 pg/mL
TNF-alpha; [12]
  TNF-alpha Conc: 13 pg/mL
TNF-alpha; [13]
  TNF-alpha Conc: 38 pg/mL
TNF-alpha; [14]
  TNF-alpha Conc: 10 pg/mL
TNF-alpha; [15]
  TNF-alpha Conc: 570 pg/mL
TNF-alpha; [16]
  TNF-alpha Conc: 47 pg/mL
TNF-alpha; [17]
  TNF-alpha Conc: 1343 pg/mL
TNF-alpha; [18]
  TNF-alpha Conc: 682 pg/mL
TNF-alpha; [19]
  TNF-alpha Conc: 313 pg/mL
TNF-alpha; [20]
  TNF-alpha Conc: 236 pg/mL
TNF-alpha; [21]
  TNF-alpha Conc: 3 pg/mL
TNF-alpha; [22]
  TNF-alpha Conc: 12 pg/mL
TNF-alpha; [23]
  TNF-alpha Conc: 0 pg/mL
TNF-alpha; [24]
  TNF-alpha Conc: 3 pg/mL
TNF-alpha; [25]
  TNF-alpha Conc: 0 pg/mL
TNF-alpha; [26]
  TNF-alpha Conc: 0 pg/mL
IL-4; 1 μM MMF, Donor 1
  IL-4 Conc: 60 pg/mL
IL-4; 1 μM MMF, Donor 2
  IL-4 Conc: 12 pg/mL
IL-4; 3 μM MMF, Donor 1
  IL-4 Conc: 70 pg/mL
IL-4; 3 μM MMF, Donor 2
  IL-4 Conc: 10 pg/mL
IL-4; 10 μM MMF, Donor 1
  IL-4 Conc: 69 pg/mL
IL-4; 10 μM MMF, Donor 2
  IL-4 Conc: 12 pg/mL
IL-4; 30 μM MMF, Donor 1
  IL-4 Conc: 92 pg/mL
IL-4; 30 μM MMF, Donor 2
  IL-4 Conc: 20 pg/mL
IL-4; 100 μM MMF, Donor 1
  IL-4 Conc: 3 pg/mL
IL-4; 100 μM MMF, Donor 2
  IL-4 Conc: 0 pg/mL
IL-4; 300 μM MMF, Donor 1
  IL-4 Conc: 0 pg/mL
IL-4; 300 μM MMF, Donor 2
  IL-4 Conc: 0 pg/mL
IL-4; 1 mM MMF, Donor 1
  IL-4 Conc: 0 pg/mL
IL-4; 1 mM MMF, Donor 2
  IL-4 Conc: 0 pg/mL
IL-4; 3 mM MMF, Donor 1
  IL-4 Conc: 0 pg/mL
IL-4; 3 mM MMF, Donor 2
  IL-4 Conc: 0 pg/mL
IL-4; after T-cell stimulation
  effect on IL-4 secretion: co-induction
IL-8; LPS 1 ng/ml, 1 μM MMF, Donor 1
  IL-8 Conc: 35264 pg/mL
IL-8; LPS 1 ng/ml, 1 μM MMF, Donor 2
  IL-8 Conc: 25146 pg/mL
IL-8; LPS 1 ng/ml, 3 μM MMF, Donor 1
  IL-8 Conc: 26255 pg/mL
IL-8; LPS 1 ng/ml, 3 μM MMF, Donor 2
  IL-8 Conc: 24672 pg/mL
IL-8; [2]
  IL-8 Conc: 1259306 pg/mL
IL-8; [3]
  IL-8 Conc: 70691 pg/mL
IL-8; [4]
  IL-8 Conc: 1369127 pg/mL
IL-8; [5]
  IL-8 Conc: 1357587 pg/mL
IL-8; [6]
  IL-8 Conc: 80524 pg/mL
IL-8; [7]
  IL-8 Conc: 1285660 pg/mL
IL-8; [8]
  IL-8 Conc: 7135 pg/mL
IL-8; [9]
  IL-8 Conc: 31370 pg/mL
IL-8; LPS 1 ng/ml, 1 mM MMF, Donor 1
  IL-8 Conc: 558 pg/mL
IL-8; LPS 1 ng/ml, 1 mM MMF, Donor 2
  IL-8 Conc: 2825 pg/mL
IL-8; LPS 1 ng/ml, 3 mM MMF, Donor 1
  IL-8 Conc: 86 pg/mL
IL-8; LPS 1 ng/ml, 3 mM MMF, Donor 2
  IL-8 Conc: 424 pg/mL
IL-8; LPS stimulated monocytes
  effect on IL-8 secretion: did not induce a co-stimulation
IL-8; [11]
  IL-8 Conc: 138285 pg/mL
IL-8; [12]
  IL-8 Conc: 241352 pg/mL
IL-8; [13]
  IL-8 Conc: 219130 pg/mL
IL-8; [14]
  IL-8 Conc: 349450 pg/mL
IL-8; [15]
  IL-8 Conc: 249798 pg/mL
IL-8; [16]
  IL-8 Conc: 446267 pg/mL
IL-8; [17]
  IL-8 Conc: 179340 pg/mL
IL-8; [18]
  IL-8 Conc: 315447 pg/mL
IL-8; [19]
  IL-8 Conc: 60312 pg/mL
IL-8; [20]
  IL-8 Conc: 153980 pg/mL
IL-8; [21]
  IL-8 Conc: 12354 pg/mL
IL-8; [22]
  IL-8 Conc: 31040 pg/mL
IL-8; [23]
  IL-8 Conc: 1696 pg/mL
IL-8; [24]
  IL-8 Conc: 5363 pg/mL
IL-8; [25]
  IL-8 Conc: 176 pg/mL
IL-8; [26]
  IL-8 Conc: 577 pg/mL
IL-8; unstimulated monocytes
  effect on IL-8 secretion: did induce an induction
[1]
  pH-value of the solution: 9-10
IL-2; 1 μM MMF, Donor 1
  IL-2 Conc: 5787 pg/mL
IL-2; 1 μM MMF, Donor 2
  IL-2 Conc: 2559 pg/mL
IL-2; 3 μM MMF, Donor 1
  IL-2 Conc: 4699 pg/mL
IL-2; 3 μM MMF, Donor 2
  IL-2 Conc: 1754 pg/mL
IL-2; 10 μM MMF, Donor 1
  IL-2 Conc: 5901 pg/mL
IL-2; 10 μM MMF, Donor 2
  IL-2 Conc: 1905 pg/mL
IL-2; 30 μM MMF, Donor 1
  IL-2 Conc: 4592 pg/mL
IL-2; 30 μM MMF, Donor 2
  IL-2 Conc: 2079 pg/mL
IL-2; 100 μM MMF, Donor 1
  IL-2 Conc: 170 pg/mL
IL-2; 100 μM MMF, Donor 2
  IL-2 Conc: 65 pg/mL
IL-2; 300 μM MMF, Donor 1
  IL-2 Conc: 2 pg/mL
IL-2; 300 μM MMF, Donor 2
  IL-2 Conc: 0 pg/mL
IL-2; 1 mM MMF, Donor 1
  IL-2 Conc: 0 pg/mL
IL-2; 1 mM MMF, Donor 2
  IL-2 Conc: 1 pg/mL
IL-2; 3 mM MMF, Donor 1
  IL-2 Conc: 1 pg/mL
IL-2; 3 mM MMF, Donor 2
  IL-2 Conc: 3 pg/mL
IL-2; after T-cell stimulation
  effect on IL-2 secretion: co-induction
